How the values were obtained:
[1] = biological target: T1, EcDsbA (Escherichia coli, UniProt P0AEG4); experiment: waterLOGSY ligand-detected NMR binding; settings: compound 500 µM, unlabelled EcDsbA 10 µM, 298 K
T1 construct: made in house; protein recovered from the periplasm of the expressing cells
Source text: (§1) To validate the binding of benzofuran analogues, three ligand-detected NMR methods, saturation-transfer difference (STD), Carr–Purcell–Meiboom–Gill (CPMG), and water–ligand observed via gradient spectroscopy (waterLOGSY), were employed to detect protein-ligand binding between the benzofurans and EcDsbA (Figure 2C). These experiments were designed as a primary screening tool to select analogues to undergo further affinity evaluation and prioritise compounds for crystal soaking. […] In a good agreement with this finding, eight out of nine benzofurans that passed all three ligand-detected experiments have their co-crystal structures successfully solved; in contrast, five compounds that failed two ligand-detected experiments only have one co-structure solved (Table 2).
(§2) For ligand-detected NMR spectroscopy, two samples (compound alone and compound + protein) were prepared for each compound. Unlabelled EcDsbA was prepared at 10 µM in a buffer of 50 mM sodium phosphate, pH 6.8, 25 mM NaCl, 100 µM 4,4-dimethyl 4-silapentane-1-sulfonic acid (DSS), and 10% ^2H2O. Compound was added to the protein sample to achieve final concentration of 500 µM (2% ^2H6-DMSO). ^1H 1D spectrum was acquired for each compound at 500 µM as a reference spectrum. All ligand-detected NMR experiments (STD, CPMG, and waterLOGSY) were acquired at 298 K on a Bruker Avance III 600 MHz NMR spectrometer equipped with a 5 mm TXI CryoProbe (Bruker, Billerica, MA, USA). STD spectra were acquired with 3 s of saturation at 1 ppm (on-resonance) and 33.3 ppm (off-resonance). WaterLOGSY spectra were acquired for compound alone and compound + protein with a 0.52 s acquisition time, 3 s relaxation delay, and 3 s Nuclear Overhauser effect (NOE) mixing time. CPMG spectra for compound alone and compound + protein were acquired with a constant spin echo delay of 1 ms and spin-lock period of 350 ms. The data was analysed using Topspin3.5 (Bruker) and DSS was used to reference the spectra.

[2] = biological target: T1, EcDsbA; experiment: STD ligand-detected NMR binding; settings: compound 500 µM, unlabelled EcDsbA 10 µM, 298 K
Source text: as §1, §2

[3] = biological target: T1, EcDsbA; experiment: CPMG ligand-detected NMR binding; settings: compound 500 µM, unlabelled EcDsbA 10 µM, 298 K, spin-lock 350 ms
Source text: as §1, §2

[4] = Solubility noted in the HSQC titration; assay type: physicochemical; settings: HSQC titration buffer
Source text: The ligand efficiency (LE) ranged from 0.15 to 0.24 kcal mol^−1 HAC^−1. […] Biophysical characterisation of 25 is illustrated in Figure 2. […] Alkyl substituents at C-6 flipped the compound orientation within the hydrophobic groove and disrupt the polar interaction between the imidazole side chain of His32 and carboxyl group of the compound present in the 25 co-structure (Figure 1C). […] It was evident in the co-crystal structure of p-anisidine 16 that the p-methoxy group had caused the benzofuran scaffold to shift further along the hydrophobic groove, possibly disrupting the π-stacking interaction with His32 and polar interactions with Gln164 (Figure 1B).

[5] = biological target: T1, EcDsbA; experiment: Compound soaking into EcDsbA crystals and X-ray diffraction; assay type: binding; settings: crystals soaked with compound at 10 mM (5% DMSO) for 3–6 h
Source text: The synthesised analogues were soaked into crystals of EcDsbA and X-ray diffraction data was collected for each analogue in order to determine their site of binding. […] The carboxy moiety of 15 was oriented towards the left-hand side of the binding groove, where more polar residues are located. The phenyl ring of the aniline moiety occupied the hydrophobic end of the binding pocket with the nitrogen atom of the amine linker positioned in close proximity to Gln35. […] Although anisidine 16 was occupying a larger region of the EcDsbA binding groove, the shift appeared to have interrupted the π-stacking interactions the benzofuran was making with the His32 side chain previously (Figure 1B and Figure S1).
EcDsbA was crystallised as previously described. Briefly, 1 µL of 30 mg/mL EcDsbA was mixed with an equal volume of crystallisation buffer (11–13% PEG8000, 5–7.5% glycerol, 1 mM CuCl2, 100 mM, sodium cacodylate pH 6.1) and equilibrated against 500 µL of reservoir buffer at 20 °C using hanging drop vapour diffusion. For compound soaking, crystals were transferred into 2 µL drops of 24% PEG8000, 22% glycerol, and 100 mM sodium cacodylate (pH 6.1) containing a compound of interest at the final concentration of 10 mM (5% DMSO) and were incubated for 3–6 h. Crystals were mounted on loops and flash-cooled in liquid nitrogen.
Datasets were collected at the Australian synchrotron on MX1 and MX2 beamlines using the Blue-Ice software (Irvine, CA, USA). MX1 beamline was equipped with an ADSC Quantum 210r detector and MX2 with an ADSC Quantum 315r detector. All datasets were indexed and integrated with iMOSFLM [32] or XDS [33]—and scaled using AIMLESS [34, 35] or SCALA [36]. Phasing was performed by molecular replacement with Phaser using the previously solved structure of EcDsbA as a search model (PDB code 1FVK). The final structure was obtained after several rounds of manual model building using Coot and refinement in phenix.refine. Structures, factors and coordinates have been deposited in the Protein Data Bank (PDB; http://www.pdb.org) under the accession codes of 6PMF, 6POQ, 6POH, 6PML, 6PVY, 6POI, and 6PVZ.

[6] = biological target: T2, 15N-labelled EcDsbA (Escherichia coli, UniProt P0AEG4); experiment: 2D 1H-15N HSQC chemical shift perturbation / titration; assay type: binding
T2 construct: made in house; protein recovered from the periplasm of the expressing cells
Experimental: Compounds that passed at least one ligand-detected NMR experiment were further validated by 2D ^1H-^15N heteronuclear single quantum coherence (HSQC) spectroscopy. In HSQC experiments, chemical shift perturbations (CSP) of backbone amide resonances of ^15N-labelled EcDsbA were measured upon addition of compound at 1 mM. […] In accordance with the crystal structure, the majority of the residues perturbed by 1 mM of benzofuran analogues in single-point HSQCs are located around the hydrophobic groove which is an important binding site for DsbA substrates (Figure 2A). […] Eight compounds produced large enough CSP (>0.04 ppm) to enable HSQC titration and KD determination.
For the 2D ^1H-^15N-HSQC titration experiment, 100 µM of ^15N-labelled EcDsbA in a buffer of 50 mM HEPES, pH 6.8, 50 mM NaCl, 2% ^2H6-DMSO, and 10% ^2H2O, was titrated with increasing concentrations of compounds ([…], 0.125, 0.25, 0.5, and 1 mM). Data were acquired on a Bruker 600 MHz spectrometer equipped with a 5 mm TXI CryoProbe and a Bruker 700 MHz spectrometer equipped with a 5 mm TXI CryoProbe. Data was processed by Topspin3.5 (Bruker) and analysed by Sparky (T. D. Goddard and D. G. Kneller, SPARKY 3, University of California, San Francisco (UCSF)). Weighted chemical shift perturbations (CSP) that were observed upon addition of compounds to EcDsbA were calculated using an Equation (1) in [41]: (1) CSP=ΔδH^2+(0.2×ΔδN)^2 where ΔδH and ΔδN denote the change in chemical shift of amide proton and nitrogen resonances upon addition of the compound. Equilibrium dissociation constants (KD) were determined by fitting the plot of CSP against compound concentrations using one site with ligand depletion model (Equation (2)): (2) CSP=CSPmax×[(KD+Pt+Lt)−((KD+Pt+Lt)^2−4×Pt×Lt)]/2×Pt where CSP is the measured CSP at a given concentration, CSPmax is the CSP observed at the saturating concentration of compound, and Pt and Lt are the total protein and compound concentrations. The ligand efficiency (LE) is calculated using the Equation (3) in [42]: (3) LE=−ΔG/HAC=−RTln(KD)/HAC where R is gas constant (1.9858775 cal K^−1 mol^−1), T is temperature (298 K), KD is equilibrium dissociation constant, and HAC is the number of heavy (non-hydrogen) atoms.

T1 sequence (P0AEG4 20-208): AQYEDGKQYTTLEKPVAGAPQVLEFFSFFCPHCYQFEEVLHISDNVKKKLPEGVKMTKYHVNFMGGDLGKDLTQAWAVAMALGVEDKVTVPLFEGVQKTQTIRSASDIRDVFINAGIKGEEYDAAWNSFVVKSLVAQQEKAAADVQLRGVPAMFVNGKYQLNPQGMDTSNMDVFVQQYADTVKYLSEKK
T2 sequence (P0AEG4 20-208): as above

| SMILES | wLOGSY [1] | STD [2] | CPMG [3] | solubility [4] | melting point [°C] | Crystal Structure in EcDsbA [5] | Kd [6] [µM] | Ligand Efficiency ([6]; LE = −RTln(KD)/HAC, 298 K) [kcal mol^−1 HAC^−1] |
| --- | --- | --- | --- | --- | --- | --- | --- | --- |
| O=C(O)Cc1coc2cc(Nc3ccccc3)ccc12 [compound 15, 2-(6-(Phenylamino)benzofuran-3-yl)acetic acid] | Pass | Pass | Pass | poor solubility | 127 to 130 | Yes |  |  |
| O=C(O)Cc1coc2cc(Cc3ccccc3)ccc12 [compound 28, 2-(6-Benzylbenzofuran-3-yl)acetic acid] | Pass | Pass | Pass |  | 124 to 127 | Yes | 341 ± 47 | 0.24 |
